From US9561232B2, “Low dose noribogaine for treating nicotine addiction and preventing relapse of nicotine use” (priority 2014, dated 2017)
“Also recorded” adds a separate entry of the source. Read-outs that look alike come from different tables or passages of the source.

Key:
nicotine dependent rats = test: Nicotine self-administration test; format: in vivo, Sprague-Dawley rats; conditions: for inactive lever press during nicotine self-administration: all treatments, repeated measure ANOVA, P>0.05
[1] = Ascending single oral dose pharmacokinetics of noribogaine in healthy volunteers (plasma, urine, LCMSMS); conditions: for mean AUC/24 hr / mean AUC/24: fasting conditions, serum
[2] = system: opioid-dependent participants; test: Efficacy in opioid-dependent participants: time to resumption of OST and COWS/OOWS/SOWS withdrawal scores; format: in vivo, human
Procedure: The efficacy of noribogaine in humans was evaluated in opioid-dependent participants in a randomized, placebo-controlled, double-blind trial. […] See U.S. application Ser. No. 14/214,157, filed Mar. 14, 2014 and Ser. No. 14/346,655, filed Mar. 21, 2014, which are incorporated herein by reference in their entireties.
Three cohorts of nine (9) subjects (6 administered noribogaine and 3 administered placebo in each cohort) were evaluated for tolerability, pharmacokinetics, and efficacy. Cohort 1 received a single dose of 60 mg noribogaine or placebo. Cohort 2 received a single dose of 120 mg noribogaine or placebo. Cohort 3 received a single dose of 180 mg noribogaine or placebo. […] Headaches were frequent in the placebo and 60 mg noribogaine treatment groups, but were attenuated in the 120 mg and 180 mg dose groups.
Patients were evaluated based on the Clinical Opiate Withdrawal Scale (COWS), Subjective Opiate Withdrawal Scale (SOWS), and Objective Opiate Withdrawal Scale (OOWS) scoring systems over the period of time between administration of noribogaine (or placebo) until resumption of OST. These scales are outlined in Guidelines for the Psychosocially Assisted Pharmacological Treatment of Opioid Dependence, World Health Organization, Geneva (2009), Annex 10, which is incorporated herein by reference in its entirety. The scales measure the intensity of withdrawal symptoms, based on clinical, subjective, and objective indicia.

[3] = Safety and tolerability of noribogaine in healthy humans
[4] = Pupillometry (pupillary miosis) in healthy volunteers; format: in vivo, human
Procedure: Pupillary miosis was assessed by pupillometry.

[5] = Cold pressor test in healthy volunteers; format: in vivo, human; conditions: ANOVA after adjusting for baseline
Procedure: Analgesic effect was assessed based on duration of hand immersion in ice water and on visual analog scale (VAS) pain scores upon hand removal from the water bath.

[6] = Pharmacokinetics in opioid-dependent patients (Phase IB study); conditions: 60, 120, 180 mg cohorts
[7] = QT interval evaluation in opioid-dependent participants; format: in vivo, human; conditions: 60, 120, 180 mg, first 24 hours post administration; correlated with serum concentration
Procedure: Patients' QT intervals were evaluated at regular time points throughout the study.

[8] = system: zebrafish during nicotine withdrawal; format: in vivo
Procedure: A total of 60 adult wild type short-fin zebrafish (˜50:50 male:female ratio) were used in this study. Fish were housed in groups of 20-30 fish per 40-L tank. Tanks were filled with filtered water and maintained at 25° C. Illumination (1000-1100 lx) was provided by ceiling-mounted fluorescent lights on a 12-h cycle (on: 6.00 h, off: 18.00 h) according to the standards of zebrafish care. All fish used in this study were experimentally naïve and fed Tetramin Tropical Flakes (Tetra USA, Blacksburg, Va.) twice a day. Following behavioral testing, the animals were euthanized in 500 mg/L Tricaine (Sigma-Aldrich, St. Louis, Mo.) buffered to pH=7.0. Animal experimentation in this study fully adhered to national and institutional guidelines and regulations.
A 1 mg/L dose of noribogaine (DMX1) was chosen based on pilot experiments and literature reports on effective doses other similar compounds. […] A standard 20-min pre-treatment time was chosen based on experience with a wide range of other neuroactive compounds and the results of pilot studies. This exposure time was also sufficient for provoking physiological (e.g., cortisol and c-fos) responses of zebrafish to multiple drugs. Drug exposure in this study was performed by submerging individual zebrafish in a 1-L plastic beaker for 20 min prior to the testing. The solution was regularly changed after each exposure, to ensure that each fish is exposed to a consistent concentration of noribogaine. Control fish were exposed to noribogaine-free water for the same treatment time, as described above.
Behavioral testing was performed between 11:00 and 15:00 h using tanks with water adjusted to the holding room temperature (25° C.). The study used the novel tank test (NTT) protocol. NTT represents one of the most commonly used neurophenotyping tests for adult zebrafish. To avoid the test battery or handling effects, each assay was performed once, on a separate individual naïve fish each time. Prior to testing, fish were pre-exposed individually in a 1-L plastic beaker for 20 min to either drug-treated or drug-free water. During testing, zebrafish behavior was recorded by two trained observers blind to the treatments, who manually scored different behavioral endpoints (inter- and intra-rater reliability in all experiments>0.85) with subsequent automated analysis of generated traces by Ethovision XT8.5 software (Noldus IT, Wageningen, Netherlands). The NTT, used to assess zebrafish anxiety and locomotion, was a 1.5-L trapezoidal tank (15 cm height×28 cm top×23 cm bottom×7 cm width; Aquatic Habitats, Apopka, Fla.) maximally filled with water and divided into two equal virtual horizontal portions by a line marking the outside walls. Fish were individually pre-exposed to water (water control), chronic nicotine (1 mg/L), repeated withdrawal from chronic nicotine (WD), and repeated withdrawal plus noribogaine (1 mg/L) for 20 min and tested in the standard 5-min NTT.
Zebrafish behavior was recorded by trained observers, scoring the latency to reach the top half of the tank(s), time spent in top(s), number of transitions to top, as well as the number and duration(s) of freezing bouts. Freezing was defined as a total absence of movement, except for the gills and eyes, for >2 s. Trials were also recorded to a computer using a USB webcam (2.0-megapixel, Gigaware, UK) and subsequently analyzed by Ethovision XT8.5, assessing distance traveled (m), velocity (m/s), and meandering endpoints. During manual observation, videos were recorded in MPEG1 format with the maximum sample rate 30 fps for each trial by auto-focusing 2.0 MP USB webcams, placed 25 cm in front of the tanks, and attached to laptop computers. Recorded videos were analyzed with Ethovision XT8.5 software. All environments were calibrated for each arena and the calibration axes were placed to designate the origin (0,0) at the center of each tank. […]

[9] = Treatment emergent adverse events in opioid-dependent participants
habitual smoker = test: Low dose intranasal noribogaine on smoking craving; format: in vivo, human; conditions: nanogram amount absorbed intranasally, during a period of several hours
Description: A habitual smoker intranasally absorbed a nanogram amount of noribogaine hydrochloride. […] The patient was unaware during that period of any nicotine or smoking cravings.

[10] = noribogaine in plasma, across dose groups 3-60 mg
[11] = nicotine withdrawal + 1 mg/L, 20 min immersion, 5-min NTT
[12] = nicotine withdrawal + 1 mg/L, NTT
[13] = nicotine withdrawal + 1 mg/L, vs control, chronic nicotine and nicotine withdrawal groups

SMILES: c1cnc2cc3c(cc2n1)[C@@H]1CNC[C@H]3C1 [varenicline, Varenicline, reference compound]
- inactive lever press during nicotine self-administration (nicotine dependent rats): no significant main effect of treatment

SMILES: CC[C@H]1C[C@@H]2C[C@H]3c4[nH]c5ccc(OC6OC(C(=O)O)C(O)C(O)C6O)cc5c4CCN(C2)[C@@H]13 (some centres unmarked) [Noribogaine glucuronide, noribogaine glucuronide]
- time by which detected in plasma of all subjects ([1]; 30 mg and 60 mg noribogaine dose groups): ≤ 0.75 h
- proportion of Cmax and AUC relative to noribogaine ([1]; both dose groups (30 mg, 60 mg)): 3-4%
- time of peak concentrations after noribogaine dosing ([1]; noribogaine glucuronide in plasma, 30 mg and 60 mg dose groups): 3 to 4 h

SMILES: CC[C@H]1CC2C[C@H]3c4[nH]c5ccc(O)cc5c4CCN(C2)C13 [Noribogaine]
- withdrawal symptoms (COWS, OOWS, SOWS), first six hours following dosing ([2]; 120 mg): generally experienced fewer withdrawal symptoms than the other patients
- withdrawal symptoms (COWS, OOWS, SOWS), noribogaine versus placebo ([2]; 60, 120, 180 mg, first six hours following dosing): Patients administered placebo generally experienced more withdrawal symptoms than patients who were administered noribogaine
- average time to resumption of opioids (OST) ([2]; single 180 mg dose): still longer than untreated patients
- number of adverse events reported ([3]; 3 mg dose group): five adverse events were reported by two subjects
- number of adverse events reported ([3]; 10 mg dose group): one adverse event was reported by single subjects
- number of adverse events reported ([3]; 30 mg dose group): one adverse event was reported by single subjects
- intensity of adverse events ([3]; all dose groups, all resolved prior to study completion): mild-moderate intensity
- Adverse events: Mild ([3]; healthy volunteers, 3 mg dose): Dizziness; also recorded: Epistaxis; also recorded: Headache; also recorded: Back pain
- Adverse events: Moderate ([3]; healthy volunteers, 3 mg dose): Headache
- Adverse events: Mild ([3]; healthy volunteers, 10 mg dose): Headache
- Adverse events: Mild ([3]; healthy volunteers, 30 mg dose): Headache
- QTcF values ([3]; healthy volunteers, 3-60 mg, at any time): ≤ 500 ms
- increase in QTcF ([3]; one subject, 10 mg, single increase at 24 hours post-dosing): > 60 ms
- pupil diameter, each dose group compared with placebo ([4]; ANOVA after adjusting for baseline, 3-60 mg): no statistically significant differences
- pupillary constriction ([4]; healthy volunteers, single oral 3-60 mg): no evidence of pupillary constriction
- VAS pain scores, each dose group compared with placebo [5]: no statistically significant differences
- duration of hand immersion, each dose group compared with placebo [5]: no statistically significant differences
- Tmax ([1]; healthy volunteers, single oral 30 mg noribogaine, fasted, plasma, mean (SD), n = 6, listed as noribogaine free base): 1.75 h
- Mean half-life estimates [1, 10]: 28 to 50 h
- time of peak concentrations after oral dosing [1, 10]: 2 to 3 h
- mean AUC/24 hr ([1]; single dose of 3 mg noribogaine free base): 3.1 ng/mL
- mean AUC/24 hr ([1]; single dose of 10 mg noribogaine free base): 10.6 ng/mL
- mean AUC/24 ([1]; single dose of 30 mg noribogaine free base): 29.2 ng/mL
- mean AUC/24 ([1]; single dose of 60 mg noribogaine free base): 61 ng/mL
- dose dependence of Cmax and AUC ([1]; single oral 3-60 mg): increased linearly with dose
- dose dependence of maximum serum concentration (Cmax) [6]: increased in a dose-dependent manner
- nicotine infusion (nicotine dependent rats; 12.5 mg/kg orally 2 hours prior to test, P<0.10 vs vehicle): A trend of depression of nicotine infusions
- nicotine infusion (nicotine dependent rats; 25 mg/kg orally 2 hours prior to test, P<0.001 vs vehicle): significantly depressed nicotine infusion
- nicotine infusion (nicotine dependent rats; 50 mg/kg orally 2 hours prior to test, P<0.001 vs vehicle): significantly depressed nicotine infusion
- inactive lever press during nicotine self-administration (nicotine dependent rats): no significant main effect of treatment
- QT interval prolongation (ΔQTcl) [7]: dose-dependent increase in QT interval prolongation
- anxiolytic-like effects (manual NTT endpoints) ([8]; 1 mg/L): statistically significant anxiolytic-like effects
- circling behavior ([8]; 1 mg/L, NTT, unaltered turn angle): did not evoke circling behavior
- Anxiogenic-like and locomotor effects of repeated nicotine withdrawal ([8]; 1 mg/L, acute): fully reversed
- motor activity (distance traveled and velocity measures) ([8]; 1 mg/L, computer-generated NTT endpoints): unaltered motor activity
- efficacy in pilot experiment ([8]; 1 mg/L, dose did not promote locomotor effects): sub-maximal efficacy
- latency to top [8, 11]: statistically significant decrease
- transitions to top [8, 11]: statistically significant increase
- transitions to upper half of tank per minute (habituation) [8, 11]: reached values equivalent to the control group at 5 minutes
- Average velocity [8, 12]: corrected by noribogaine treatment
- Freezing bouts' frequency and duration [8, 12]: reversed that effect in nicotine withdrawal fish and re-established levels to that of the control fish group
- Total distance traveled (anxiety-like response of withdrawal group) [8, 12]: corrected by treatment with noribogaine
- absolute change in direction (rotation angle) [8, 12]: no difference observed
- absolute change in direction of movement per distance moved (FIG. 12, panel G), reduced in withdrawal group [8, 12]: corrected by treatment with noribogaine
- freezing bouts frequency [8, 12]: re-established the high bouts due to nicotine withdrawal toward control levels
- high-mobility number of events [8, 12]: increase in high-mobility number of events
- increase of hi-mobility duration and frequency (factor) [8, 12]: ~2
- mobility and immobility endpoints (durations, frequency) [8, 12]: reestablished mobility (mobile and immobile) durations and frequency in nicotine treated fish to control values
- relative change in direction; absolute change in direction of movement per distance moved (FIG. 12, panels E and F) [8, 12]: no change was seen
- mobility and immobility endpoints (durations, frequency) ([8]; nicotine withdrawal + 1 mg/L, NTT, listed as noribogaine): control-equivalent values for mobility and immobility endpoints
- turning rotation rate ([8]; nicotine withdrawal + 1 mg/L, over chronic nicotine and nicotine withdrawal groups): slight increase in turning rotation rate
- average entry duration [8, 13]: increased average entry duration
- time spent in top [8, 13]: Statistically significant increases in the duration of time spent in the top(s) portion of the tank
- Headaches ([9]; 60 mg treatment group): frequent
- Headaches ([9]; 120 mg and 180 mg dose groups): attenuated
- adverse effects observed ([9]; opioid-dependent participants, single 60, 120 or 180 mg): Few adverse effects
- Dry Mouth ([9]; treatment emergent AE, 60 mg, N = 6): 0

SMILES: CC[C@@H]1C[C@H]2CC3c4[nH]c5ccc(O)cc5c4CCN(C2)C31.Cl [noribogaine hydrochloride]
- craving to smoke (habitual smoker): any craving to smoke stopped
